Measured values taken from patent US4371537A, “Sulfur-substituted phenoxypyridines having antiviral activity” (The Dow Chemical Company, priority 1981, dated 1983).
Values after ≈ are worked out from the molar mass of the structure shown.

Columns and labels:
[1] = tested on: 20 different rhinoviruses; assay: Summary of WI-38 tissue culture testing against 20 rhinoviruses; format: cell-based; details: of 20 rhinoviruses
Procedure: The test compound was dissolved in an appropriate solvent (generally dimethyl sulfoxide) and incubated at 56° C. for at least 15 minutes and this solution was then used to prepare various test solutions having the desired concentration of test compound in preheated WI maintenance medium (49% Eagles, 49% medium 199, 2% fetal calf serum and antibiotics).
Triplicate cell culture tubes (WI-38 human embryonic lung cell culture tubes) were fed with 1 ml of medium containing the compound at specified concentrations and inoculated with 3-300 TCID50 (3-300 times the tissue culture infective dose 50, i.e., the dose required to infect 50% of the cell cultures tested). Simultaneous viral titrations were performed. The tissue cultures were supplemented with fresh medium when necessary (around 3-4 days) until viral titrations were completed.
The cell culture tubes were examined dialy for cytopathic effect. […] Comparisons were made at that time with the percentage of cell sheet destruction in tubes containing virus compound mixtures. Observed differences of 75% or more were graded "+", 74-50% as "±", and less than 50% as "-" inhibition.

[2] = Cytotoxicity in tissue culture testing (HeLa monolayers); format: cell-based; details: human; HeLa cells; observed at 48 and 72 hours post-treatment; read-out: Cytotoxicity: concentration of the compound found to be toxic to the cell
Procedure: (§1) Monolayered HeLa cells in 16 millimeter (mm) tissue culture dishes were treated with 1 ml of culture medium (Eagles medium supplemented with fetal calf serum) containing subject compound at an appropriate concentration or containing no compound at all. Culture media such as those described herein are more fully described in standard texts, as for example, Kuchler's Biochemical Methods in Cell Culture and Virology, Dowden, Hutchinson and Ross, Inc., Stroudsberg, PA (1977). Following treatment, cells were challenged with 0.05 ml of rhinovirus type 1A (RV-1A), rhinovirus type 2 (RV-2) or Coxsackie A21 virus (Cox A21) in culture medium. Some of the compounds were also tested against rhinovirus type 5 (RV-5), rhinovirus type 8 (RV-8) or rhinovirus type 64 (RV-64). Cell controls received no viruses.
^1 Cytotoxicity figures represent the concentration of the compound, […]

[3] = tested on: Coxsackie A21 virus; assay: Continuous Oral Feeding test in mice challenged IP with Coxsackie A21 virus; format: in vivo; details: po, 0.06 % in diet, 240 h
Procedure: Some of the compounds were also tested in animals utilizing the following procedure, hereainafter referred to as the "Continuous Oral Feeding" test. Coxsackie A21 virus grown on HeLa cells was administered at a concentration that produces 80 to 100% deaths in mice weighing 8 to 12 grams within 10 days, when the mice are injected (IP) with 0.2 ml of virus preparation. Mice were placed on diets containing test compound dispersed in plain commercially available rodent mash chow at a concentration of 0.06% (weight percent) on day 0. On day 1 the mice were challenged with the virus preparation, 0.2 ml/mouse, (IP). Deaths in both control and experimental groups were recorded for the 10 days and the results analyzed by a chi-square (.chi.^2) test. Chi-square values greater than 3.84 indicate the compound is active (95% confidence level).

[4] = tested on: rhinovirus type 2 (RV-2); assay: Tissue culture testing, rhinovirus type 2 in HeLa cells; format: cell-based; details: Enterovirus, 48 and 72 hours, NA = not active at the standard test conditions, read-out: RV-2: lowest concentration of the compound necessary to cause a 50 percent reduction in cytopathic effect
Procedure: as §1
(§2) ^2 Lowest concentration of the compound (μg/ml) necessary to cause

[5] = tested on: Coxsackie A21 virus (Cox A21); assay: Tissue culture testing, Coxsackie A21 virus in HeLa cells; format: cell-based; details: 48 and 72 hours, NA = not active at the standard test conditions, read-out: Cox A21: lowest concentration of the compound necessary to cause a 50 percent reduction in cytopathic effect
Procedure: as §1, §2

[6] = tested on: rhinovirus type 64 (RV-64); assay: Tissue culture testing, rhinovirus type 64 in HeLa cells; format: cell-based; details: Enterovirus, 48 and 72 hours, NA = not active at the standard test conditions, read-out: RV-64: lowest concentration of the compound necessary to cause a 50 percent reduction in cytopathic effect
Procedure: as §1, §2

[7] = tested on: rhinovirus type 1A (RV-1A); assay: Tissue culture testing, rhinovirus type 1A in HeLa cells; format: cell-based; details: Enterovirus, 48 and 72 hours, NA = not active at the standard test conditions, read-out: RV-1A: lowest concentration of the compound necessary to cause a 50 percent reduction in cytopathic effect
Procedure: as §1, §2

[8] = tested on: Cox A21; assay: Single Oral Dose test in mice challenged IP with Cox A21; format: in vivo, Swiss male mice; details: >3.84 significant (95% confidence level)
Procedure: In addition, some of the compounds were tested in animals utilizing the following procedure, hereinafter referred to as the "Single Oral Dose" test. Swiss male mice, 8-12 grams in weight were challenged intraperitoneally (IP) with 0.2 ml of a normally lethal dose, i.e., a virus dose sufficient to cause […].80-100% mortality in infected animals within 10 days of challenge of Cox A21, in phosphate buffered saline containing 1% heat inactivated fetal calf serum. Three hours later mice were treated orally (P.O.) with 0.2 ml of compound suspended in 0.5% hydroxypropyl methylcellulose (Methocel) or with 0.2 ml of 0.5% Methocel containing no compound. […] Mice were observed daily for 7-10 days post-challenge and deaths recorded. A modified Mantel-Haenzel combined chi-square procedure was used to determine significant difference between virus control and treated groups. Chi-square values greater than 3.84 are considered significant (95% confidence level) in this test.

[9] = 600 mg/kg P.O. 3 h after IP challenge

Row | Structure (SMILES) | number of test rhinoviruses against which the compound was graded "+" ([1]; 25 μg/ml) [test rhinoviruses] | number of test rhinoviruses against which the compound was graded "±" ([1]; 25 μg/ml) | number of test rhinoviruses against which the compound was graded "+" ([1]; 12.5 μg/ml) [test rhinoviruses] | number of test rhinoviruses against which the compound was graded "±" ([1]; 12.5 μg/ml) | MCC [2] [µg/mL] | Continuous Oral Feeding X^2 (chi-square, deaths vs control) [3] | EC50 [4] [µg/mL] | EC50 [5] [µg/mL] | EC50 [6] [µg/mL] | EC50 [7] [µg/mL] | Single Oral Dose X^2 (chi-square, deaths vs virus control) [8, 9] | Single Oral Dose X^2 (chi-square, deaths vs virus control) ([8]; 400 mg/kg P.O. 3 h after IP challenge)
1 | CCS(=O)(=O)c1ccc(Oc2ccc(Cl)c(Cl)c2)nc1 [2-(3,4-dichlorophenoxy)-5-(ethylsulfonyl)pyridine] | 14 | 3 | – | – | – | – | – | – | – | – | – | –
2 | CS(=O)(=O)c1ccc(Oc2ccc(Cl)c(Cl)c2)nc1 [2-(3,4-dichlorophenoxy)-5-(methylsulfonyl)pyridine] | 14 | 2 | – | – | – | – | – | – | – | – | – | –
3 | CCS(=O)(=O)c1ccc(Oc2ccc(Cl)cc2)nc1 [2-(4-chlorophenoxy)-5-(ethylsulfonyl)pyridine] | – | – | 13 | 4 | – | – | – | – | – | – | – | –
4 | CS(=O)(=O)c1ccc(Oc2ccc(Cl)cc2)nc1 [2-(4-chlorophenoxy)-5-(methylsulfonyl)pyridine] | – | – | 13 | 3 | – | – | – | – | – | – | – | –
5 | CS(=O)(=O)c1ccc(Oc2ccc(C(=O)c3ccccc3)cc2)nc1 [(4-((5-(methylsulfonyl)-2-pyridinyl)oxy)phenyl)phenylmethanone] | 13 | 3 | – | – | – | – | – | – | – | – | – | –
6 | CS(=O)(=O)c1ccc(Oc2ccc(SC(F)(F)F)cc2)nc1 [Example 27, 5-(methylsulfonyl)-2-(4-((trifluoromethyl)thio)phenoxy)pyridine] | – | – | – | – | ≥ 100 | 29.753 | < 6.25 | < 6.25 | < 6.25 | 12.5 (≈ 35.8 µM) | 39.700 | –
7 | CS(=O)(=O)c1ccc(Oc2cccc(Br)c2)nc1 [Example 35, 2-(3-bromophenoxy)-5-(methylsulfonyl)pyridine] | – | – | – | – | > 100 | 0.197 | 12.5 (≈ 38.1 µM) | 50 (≈ 152 µM) | 6.25 (≈ 19 µM) | < 6.25 | 1.604 | –
8 | CS(=O)(=O)c1ccc(Oc2cccc(C#N)c2)nc1 [Example 36, 3-((5-(methylsulfonyl)-2-pyridinyl)oxy)benzonitrile] | – | – | – | – | > 100 | 3.447 | 50 (≈ 182 µM) | 50 (≈ 182 µM) | 50 (≈ 182 µM) | 12.5 (≈ 45.6 µM) | 2.20 | –
9 | C[S+]([O-])c1ccc(Oc2ccc(Cl)c(Cl)c2)nc1 (centres unmarked) [Example 39, 2-(3,4-dichlorophenoxy)-5-(methylsulfinyl)pyridine] | – | – | – | – | 25 | – | 1.25 (≈ 4.14 µM) | 25 (≈ 82.7 µM) | 1.25 (≈ 4.14 µM) | 0.625 (≈ 2.07 µM) | – | –
10 | CCSc1ccc(Oc2ccc(Cl)c(Cl)c2)nc1 [Example 45, 2-(3,4-dichlorophenoxy)-5-(ethylthio)pyridine] | – | – | – | – | 12.5 | – | 2.5 (≈ 8.33 µM) | 3.12 (≈ 10.4 µM) | 5 (≈ 16.7 µM) | 2.5 (≈ 8.33 µM) | – | –
11 | CC[S+]([O-])c1ccc(Oc2ccc(Cl)c(Cl)c2)nc1 (centres unmarked) [Example 46, 2-(3,4-dichlorophenoxy)-5-(ethylsulfinyl)pyridine] | – | – | – | – | 12.5 | – | < 3.12 | 12.5 (≈ 39.5 µM) | 5 (≈ 15.8 µM) | < 3.12 | – | –
12 | CC(C)S(=O)(=O)c1ccc(Oc2ccc(Cl)c(Cl)c2)nc1 [Example 49, 2-(3,4-dichlorophenoxy)-5-((1-methylethyl)sulfonyl)pyridine] | – | – | – | – | 12.5 | 3.851 | 0.625 (≈ 1.81 µM) | 0.625 (≈ 1.81 µM) | 0.625 (≈ 1.81 µM) | < 0.312 | – | 0.004
13 | CC(C)S(=O)(=O)c1ccc(Oc2ccc(Br)cc2)nc1 [Example 50, 2-(4-bromophenoxy)-5-((1-methylethyl)sulfonyl)pyridine] | – | – | – | – | 12.5 | 1.243 | 1.25 (≈ 3.51 µM) | 1.25 (≈ 3.51 µM) | 2.5 (≈ 7.02 µM) | 1.25 (≈ 3.51 µM) | 10.040 | –
14 | CCCCCCS(=O)(=O)c1ccc(Oc2ccc(C(=O)c3ccccc3)cc2)nc1 [Example 55, (4-((5-(n-hexylsulfonyl)-2-pyridinyl)oxy)phenyl)phenylmethanone] | – | – | – | – | 12.5 | – | 12.5 (≈ 29.5 µM) | 3.12 (≈ 7.38 µM) | – | 3.12 (≈ 7.38 µM) | 0.190 | –
15 | O=S(=O)(c1ccccc1)c1ccc(Oc2ccc(Cl)c(Cl)c2)nc1 [Example 60, 2-(3,4-dichlorophenoxy)-5-(phenylsulfonyl)pyridine] | – | – | – | – | ≥ 100 | 0.970 | 10 (≈ 26.3 µM) | 10 (≈ 26.3 µM) | – | 5 (≈ 13.1 µM) | 0.839 | –
16 | O=S(=O)(c1ccccc1)c1ccc(Oc2ccc(Br)cc2)nc1 [Example 61, 2-(4-bromophenoxy)-5-(phenylsulfonyl)pyridine] | – | – | – | – | 20 | 3.328 | 10 (≈ 25.6 µM) | 5 (≈ 12.8 µM) | – | 10 (≈ 25.6 µM) | 4.401 | –
17 | O=S(=O)(Cc1ccccc1)c1ccc(Oc2ccc(Cl)c(Cl)c2)nc1 [Example 63, 2-(3,4-dichlorophenoxy)-5-((phenylmethyl)sulfonyl)pyridine] | – | – | – | – | 25 | 4.106 | 10 (≈ 25.4 µM) | 10 (≈ 25.4 µM) | – | 5 (≈ 12.7 µM) | 0.733 | –
18 | O=S(=O)(Cc1ccccc1)c1ccc(Oc2ccc(Br)cc2)nc1 [Example 64, 2-(4-bromophenoxy)-5-((phenylmethyl)sulfonyl)pyridine] | – | – | – | – | ≥ 100 | 2.985 | 50 (≈ 124 µM) | – | – | – | 0.483 | –
19 | CS(=O)(=O)c1cccc(Oc2ccc(C(=O)c3ccccc3)cc2)n1 [Example 68] | – | – | – | – | 12.5 | 0.680 | 6.25 (≈ 17.7 µM) | 6.25 (≈ 17.7 µM) | – | 6.25 (≈ 17.7 µM) | 0.362 | –
20 | CS(=O)(=O)c1cccc(Oc2ccc(Cc3ccccc3)cc2)n1 [Example 69, 2-(methylsulfonyl)-6-(4-(phenylmethyl)phenoxy)pyridine] | – | – | – | – | 5 | 0.776 | 2.5 (≈ 7.37 µM) | – | – | 0.625 (≈ 1.84 µM) | 3.510 | –
